Laboratory results as given in US6926763B2, “Purine and isosteric antibacterial compounds” (GLSynthesis, Inc., priority 2002, dated 2005).
In brackets after ≈: the same amount, converted by molar mass. Where two headings read alike, the source gives them in different places. Values belong to the molecule of their own block, whether it stands above or below them.

Legend:
B.s. pol IIIC = B.s. pol IIIC (Bacillus subtilis, UniProt P13267); assay: biochemical; assay type: biochemical
Method: (§1) The ability of a test compound to inhibit the activity of DNA pol IIIC or pol IIIE enzymes can be tested by using a DNA polymerase assay as described, for example, in Barnes and Brown, Nucl. […] This rapid screening method can use natural or recombinant DNA pol III enzymes in a standard DNA polymerase activity assay. By including a test compound in a side-by-side assay with a control, the effect of the test compound on polymerase activity can be assessed.
(§2) DNA pol III activity was assayed as described in Barnes et al., Nucl.
(§3) Purified pol IIIC or pol IIIE was added to a buffered solution containing Mg^2+, DTT, glycerol, nicked calf thymus DNA, saturating concentrations of dATP, dCTP, dTTP and [^3H]-dTTP. Reaction mixtures were incubated at 30° C. for 10 min, quenched and filtered, and radioactivity in the acid-insoluble material measured by scintillation counting. Experiments were done in triplicate. Inhibitors were assayed by addition of several dilutions of a stock solution of inhibitor (DMSO or water, depending on solubility) before enzyme addition. […] The truncated assay, i.e., exclusion of the competitive substrate dGTP allows for the direct determination of apparent inhibitor constants (Ki) in this assay system.

B.s. pol IIIE = B.s. pol IIIE (Bacillus subtilis, UniProt O34623); assay: biochemical; assay type: biochemical
Method: as §1, §2, §3

Bacillus subtilis = assay: Inhibition of bacterial growth (agar plate MIC), B.s.; assay type: cell-based; settings: agar plates, 37° C., 24 hours; for MIC: Bacillus subtilis
Method: (§4) Antimicrobial efficacy may be determined by standard methods of microbial culture in growth medium or on plates of agar supplemented with appropriate growth media. For example, microbes, e.g., mycoplasmata or Gram-positive or Gram-negative bacteria, are grown in the presence of serial dilutions of compounds in an appropriate vehicle, and, after a suitable period of growth, the microbial density is measured by visual or instrumental means. The concentration of compound at which no growth occurs is the minimum inhibitory concentration (MIC) of the compound. Test compounds with an appropriate level of growth inhibition are good candidate therapeutics for further evaluation.
(§5) Each compound was assayed against a panel of Gram-positive Bacilli, Enterococci, and Staphylococci, and Gram-negative Escherichia coli, grown in appropriate plate media solidified with 1.3% agar-agar. […] One tenth mL of diluted bacteria containing 500-1000 colony-forming units (CFU) were plated and spread, and the plates were incubated at 37° C. for 24 hours. MIC (minimum inhibitory concentration) was equivalent to the lowest concentration at which growth, i.e. colony formation, was not observed.

Staphylococcus aureus = assay: Inhibition of bacterial growth (agar plate MIC), S.a.; assay type: cell-based; settings: agar plates, 37° C., 24 hours; for MIC: Staphylococcus aureus
Method: as §4, §5

S.a. (Smith) = assay: Inhibition of bacterial growth (agar plate MIC), S.a. (Smith); assay type: cell-based, Staphylococcus aureus; settings: agar plates, 37° C., 24 hours; for MIC: Staphylococcus aureus
Method: as §4, §5

MRSA (B42876) = assay: Inhibition of bacterial growth (agar plate MIC), MRSA (B42876); assay type: cell-based, methicillin-resistant S.a.; settings: agar plates, 37° C., 24 hours; for MIC: Staphylococcus aureus, MRSA
Method: as §4, §5

Enterococcus fecalis = assay: Inhibition of bacterial growth (agar plate MIC), E. fecalis; assay type: cell-based; settings: agar plates, 37° C., 24 hours; for MIC: Enterococcus
Method: as §4, §5

Enterococcus fecium = assay: Inhibition of bacterial growth (agar plate MIC), E. fecium; assay type: cell-based; settings: agar plates, 37° C., 24 hours; for MIC: Enterococcus
Method: as §4, §5

[1] = tested on: vancomycin-resistant E. fecium; assay: Inhibition of bacterial growth (agar plate MIC), VRE; assay type: cell-based, Enterococcus fecium; settings: agar plates, 37° C., 24 hours
Method: as §4, §5

in vitro = in vitro ADME; settings: human, Caco-2
Description: Table 2 summarizes the results of cell membrane permeability assays of representative compounds of the invention. The assay utilizes CaCo2 cell culture monolayers, described by Artursson and Kalsson, Biochem. Biophys. Res.

[2] = truncated assay without dGTP, apparent Ki, read-out: Ki, B.s. pol IIIC
[3] = truncated assay without dGTP, apparent Ki, read-out: Ki, B.s. pol IIIE

Chain of B.s. pol IIIE (O34623 whole entry): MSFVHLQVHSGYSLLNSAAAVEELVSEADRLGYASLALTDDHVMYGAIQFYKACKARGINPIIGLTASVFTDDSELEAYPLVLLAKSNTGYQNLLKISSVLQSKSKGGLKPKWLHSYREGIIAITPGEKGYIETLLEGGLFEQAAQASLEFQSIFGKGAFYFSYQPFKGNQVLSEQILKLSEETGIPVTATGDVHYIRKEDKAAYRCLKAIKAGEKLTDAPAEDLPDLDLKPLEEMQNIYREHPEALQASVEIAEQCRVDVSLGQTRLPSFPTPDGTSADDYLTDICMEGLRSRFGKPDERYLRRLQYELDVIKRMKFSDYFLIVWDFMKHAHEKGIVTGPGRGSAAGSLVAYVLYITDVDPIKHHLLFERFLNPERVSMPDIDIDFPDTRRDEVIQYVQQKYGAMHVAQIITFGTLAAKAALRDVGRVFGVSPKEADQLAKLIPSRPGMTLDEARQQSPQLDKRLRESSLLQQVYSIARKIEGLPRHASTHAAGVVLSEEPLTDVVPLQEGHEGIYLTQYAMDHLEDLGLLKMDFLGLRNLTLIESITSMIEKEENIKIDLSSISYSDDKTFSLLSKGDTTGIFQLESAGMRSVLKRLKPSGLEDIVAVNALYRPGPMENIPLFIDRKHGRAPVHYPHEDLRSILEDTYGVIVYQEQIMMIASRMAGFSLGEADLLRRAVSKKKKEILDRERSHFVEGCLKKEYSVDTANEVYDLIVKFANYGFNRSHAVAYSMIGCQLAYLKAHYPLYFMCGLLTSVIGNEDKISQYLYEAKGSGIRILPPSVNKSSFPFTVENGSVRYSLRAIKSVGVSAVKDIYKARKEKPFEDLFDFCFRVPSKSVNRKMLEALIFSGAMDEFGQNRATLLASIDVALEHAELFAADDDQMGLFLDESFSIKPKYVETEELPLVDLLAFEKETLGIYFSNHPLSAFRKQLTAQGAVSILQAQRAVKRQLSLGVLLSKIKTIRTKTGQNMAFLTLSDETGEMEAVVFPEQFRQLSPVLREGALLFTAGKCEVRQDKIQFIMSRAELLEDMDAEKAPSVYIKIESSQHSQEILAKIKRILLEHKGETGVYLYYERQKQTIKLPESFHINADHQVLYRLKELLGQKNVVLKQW
Chain of B.s. pol IIIC (P13267 whole entry): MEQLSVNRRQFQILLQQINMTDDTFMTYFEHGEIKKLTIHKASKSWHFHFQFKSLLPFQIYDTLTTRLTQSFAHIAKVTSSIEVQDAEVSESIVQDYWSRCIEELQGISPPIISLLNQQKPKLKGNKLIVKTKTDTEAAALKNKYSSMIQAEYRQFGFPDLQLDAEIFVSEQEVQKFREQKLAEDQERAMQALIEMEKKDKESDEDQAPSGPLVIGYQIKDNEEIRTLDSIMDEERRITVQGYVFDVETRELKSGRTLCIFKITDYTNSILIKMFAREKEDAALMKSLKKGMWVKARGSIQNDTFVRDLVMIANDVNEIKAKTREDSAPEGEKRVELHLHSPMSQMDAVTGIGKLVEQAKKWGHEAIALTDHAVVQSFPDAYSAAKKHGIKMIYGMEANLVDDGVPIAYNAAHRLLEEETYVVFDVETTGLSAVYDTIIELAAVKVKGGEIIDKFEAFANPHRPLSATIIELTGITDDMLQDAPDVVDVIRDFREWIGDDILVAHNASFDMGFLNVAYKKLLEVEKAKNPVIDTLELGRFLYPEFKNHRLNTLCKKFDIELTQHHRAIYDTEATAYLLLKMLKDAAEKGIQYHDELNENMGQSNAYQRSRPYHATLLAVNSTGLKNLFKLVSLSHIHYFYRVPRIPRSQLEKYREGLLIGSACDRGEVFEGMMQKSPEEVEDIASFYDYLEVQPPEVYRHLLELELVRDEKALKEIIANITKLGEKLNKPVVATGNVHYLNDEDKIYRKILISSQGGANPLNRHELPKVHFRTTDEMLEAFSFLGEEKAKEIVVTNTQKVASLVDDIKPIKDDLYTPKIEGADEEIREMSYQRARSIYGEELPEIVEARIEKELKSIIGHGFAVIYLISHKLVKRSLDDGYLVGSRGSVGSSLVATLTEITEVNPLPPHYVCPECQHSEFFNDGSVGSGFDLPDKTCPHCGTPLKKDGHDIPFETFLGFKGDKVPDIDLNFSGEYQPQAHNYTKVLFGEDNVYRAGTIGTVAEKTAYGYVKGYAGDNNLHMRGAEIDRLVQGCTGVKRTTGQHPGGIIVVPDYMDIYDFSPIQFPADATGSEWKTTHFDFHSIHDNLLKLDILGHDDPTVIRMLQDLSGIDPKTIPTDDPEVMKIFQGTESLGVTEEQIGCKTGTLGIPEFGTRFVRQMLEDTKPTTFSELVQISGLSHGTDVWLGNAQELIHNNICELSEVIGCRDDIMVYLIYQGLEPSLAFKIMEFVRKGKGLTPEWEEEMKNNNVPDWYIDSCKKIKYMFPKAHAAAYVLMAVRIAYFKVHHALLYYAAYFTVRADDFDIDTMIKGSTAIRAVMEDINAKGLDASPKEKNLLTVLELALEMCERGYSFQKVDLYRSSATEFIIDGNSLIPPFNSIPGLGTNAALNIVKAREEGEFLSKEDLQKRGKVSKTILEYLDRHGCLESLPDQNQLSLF

Structure (SMILES): O=c1[nH]c(NCc2ccc(Cl)c(Cl)c2)cc2ncn(CCCCN3CCOCC3)c12 [Compound 4, 2-(3,4-Dichlorobenzylamino)-6-oxo-7-(4-morpholinylbutyl)-3-deazapurine]
Ki (B.s. pol IIIC; [2]): 94 nM
Ki (B.s. pol IIIE; [3]): 200 nM
MIC, B.s. (Bacillus subtilis): 7.5 µg/mL (≈ 16.7 µM)
MIC, S.a. (Staphylococcus aureus): 20 µg/mL (≈ 44.4 µM)
MIC, S.a. (Smith) (S.a. (Smith)): 10 µg/mL (≈ 22.2 µM)
MIC, MRSA (B42876) (MRSA (B42876)): 20 µg/mL (≈ 44.4 µM)
MIC, E. fecalis (Enterococcus fecalis): 20 µg/mL (≈ 44.4 µM)
MIC, E. fecium (Enterococcus fecium): 15 µg/mL (≈ 33.3 µM)
MIC, VRE [1]: 10 µg/mL (≈ 22.2 µM)

Structure (SMILES): O=c1[nH]c(NCc2ccc(Cl)c(Cl)c2)cc2ncn(CCCCCN3CCOCC3)c12 [Compound 5, 2-(3,4-Dichlorobenzylamino)-6-oxo-7-(5-morpholinylpentyl)-3-deazapurine]
Ki (B.s. pol IIIC; [2]): 100 nM
Ki (B.s. pol IIIE; [3]): 290 nM
MIC, B.s. (Bacillus subtilis): 10 µg/mL (≈ 21.5 µM)
MIC, S.a. (Staphylococcus aureus): 20 µg/mL (≈ 43.1 µM)
MIC, S.a. (Smith) (S.a. (Smith)): 20 µg/mL (≈ 43.1 µM)
MIC, MRSA (B42876) (MRSA (B42876)): 20 µg/mL (≈ 43.1 µM)
MIC, E. fecalis (Enterococcus fecalis): 20 µg/mL (≈ 43.1 µM)
MIC, E. fecium (Enterococcus fecium): 20 µg/mL (≈ 43.1 µM)
MIC, VRE [1]: 15 µg/mL (≈ 32.3 µM)

Structure (SMILES): CC(=O)OCCCCn1cnc2nc(NCc3ccc(Cl)c(Cl)c3)[nH]c(=O)c21 [Compound 7, 7-(4-Acetoxybutyl)-2-(3,4-dichlorobenzylamino)-6-oxopurine]
Ki (B.s. pol IIIC; [2]): 66 nM
MIC (Bacillus subtilis): 5 µg/mL (≈ 11.8 µM)
MIC (Staphylococcus aureus): 5 µg/mL (≈ 11.8 µM)
MIC (S.a. (Smith)): 2.5 µg/mL (≈ 5.89 µM)
MIC (MRSA (B42876)): 2.5 µg/mL (≈ 5.89 µM)
MIC (Enterococcus fecalis): 2.5 µg/mL (≈ 5.89 µM)
MIC (Enterococcus fecium): 2.5 µg/mL (≈ 5.89 µM)
MIC ([1]; Enterococcus, VRE): 5 µg/mL (≈ 11.8 µM)

Structure (SMILES): O=c1[nH]c(NCc2ccc(Cl)c(Cl)c2)nc2ncn(CCCCO)c12 [Compound 8, 7-(4-Hydroxybutyl)-2-(3,4-dichlorobenzylamino)-6-oxopurine]
Ki (B.s. pol IIIC; [2]): 190 nM
MIC (Bacillus subtilis): 15 µg/mL (≈ 39.2 µM)
MIC (S.a. (Smith)): 25 µg/mL (≈ 65.4 µM)
MIC (MRSA (B42876)): 30 µg/mL (≈ 78.5 µM)
MIC (Enterococcus fecalis): 10 µg/mL (≈ 26.2 µM)
MIC (Enterococcus fecium): 7.5 µg/mL (≈ 19.6 µM)

Structure (SMILES): CC(=O)OCCCCCn1cnc2nc(NCc3ccc(Cl)c(Cl)c3)[nH]c(=O)c21 [Compound 11, 7-(5-Acetoxypentyl)-2-(3,4-dichlorobenzylamino)-6-oxopurine]
Ki (B.s. pol IIIC; [2]): 52 nM
MIC (Staphylococcus aureus): 2.5 µg/mL (≈ 5.7 µM)
MIC (Enterococcus fecalis): 1.25 µg/mL (≈ 2.85 µM)
MIC (Enterococcus fecium): 1.25 µg/mL (≈ 2.85 µM)

Structure (SMILES): O=c1[nH]c(NCc2ccc(Cl)c(Cl)c2)nc2ncn(CCCCCO)c12 [Compound 12, 7-(5-Hydroxypentyl)-2-(3,4-dichlorobenzylamino)-6-oxopurine]
Ki (B.s. pol IIIC; [2]): 52 nM
MIC (Staphylococcus aureus): 20 µg/mL (≈ 50.5 µM)
MIC (Enterococcus fecalis): 5 µg/mL (≈ 12.6 µM)
MIC (Enterococcus fecium): 10 µg/mL (≈ 25.2 µM)

Structure (SMILES): CCc1cc(Nc2cc3ncn(CCCCOC)c3c(=O)[nH]2)ccc1C [Compound 15, 2-(3-Ethyl-4-methylphenylamino)-6-oxo-7-(4-methoxybutyl)-3-deazapurine]
Ki (B.s. pol IIIC): 1500 nM
Ki, B.s. pol IIIE (B.s. pol IIIE; truncated assay without dGTP, apparent Ki): inact
MIC (Bacillus subtilis): 2.5 µg/mL (≈ 7.05 µM)
MIC (MRSA (B42876)): 10 µg/mL (≈ 28.2 µM)
MIC (Enterococcus fecalis): 10 µg/mL (≈ 28.2 µM)
MIC (Enterococcus fecium): 10 µg/mL (≈ 28.2 µM)

Structure (SMILES): CCc1cc(Nc2nc3ncn(CCCCCOC(C)=O)c3c(=O)[nH]2)ccc1C [Compound 19, 7-(5-Acetoxypentyl)-2-(3-ethyl-4-methylphenylamino)-6-oxopurine]
Papp (in vitro): 0.58 ×10⁻⁶ cm/s

Structure (SMILES): CCc1cc(Nc2nc3ncn(CCCCCOC)c3c(=O)[nH]2)ccc1C [Compound 22, 7-(5-Methoxypentyl)-2-(3-ethyl-4-methylphenylamino)-6-oxopurine]
Ki (B.s. pol IIIC): 260 nM
Ki (B.s. pol IIIE): 394000 nM
MIC (Bacillus subtilis): 1.25 µg/mL (≈ 3.38 µM)
MIC (Enterococcus fecalis): 5 µg/mL (≈ 13.5 µM)
MIC (Enterococcus fecium): 10 µg/mL (≈ 27.1 µM)

Structure (SMILES): CCc1cc(Nc2nc3ncn(CCCCCN4CCC(O)(c5ccc(Cl)c(C(F)(F)F)c5)CC4)c3c(=O)[nH]2)ccc1C [Compound 23, 7-{5-[4-hydroxy-4-(3-trifluoromethyl-4-chlorophenyl)piperidyl]pentyl}-2-(3-ethyl-4-methylphenylamino)-6-oxopurine]
Ki (B.s. pol IIIC; [2]): 130 nM
Ki (B.s. pol IIIE; [3]): 38000 nM
MIC, B.s. (Bacillus subtilis): 2.5 µg/mL (≈ 4.05 µM)
MIC, S.a. (Staphylococcus aureus): 5 µg/mL (≈ 8.1 µM)
MIC, S.a. (Smith) (S.a. (Smith)): 5 µg/mL (≈ 8.1 µM)
MIC, MRSA (B42876) (MRSA (B42876)): 5 µg/mL (≈ 8.1 µM)
MIC, E. fecalis (Enterococcus fecalis): 5 µg/mL (≈ 8.1 µM)
MIC, E. fecium (Enterococcus fecium): 5 µg/mL (≈ 8.1 µM)
MIC, VRE [1]: 5 µg/mL (≈ 8.1 µM)

Papp (in vitro): 19.3 ×10⁻⁶ cm/s
Structure (SMILES): CC(C)NCC(O)COc1cccc2ccccc12 (stereo not drawn) [Propranolol, reference compound]

Papp (in vitro): 0.27 ×10⁻⁶ cm/s
Structure (SMILES): CNC(=C[N+](=O)[O-])NCCSCc1ccc(CN(C)C)o1 [Ranitidine, reference compound]
